Laboratory results from ChEMBL document CHEMBL3286253, “Design, synthesis, and structure-activity relationship studies of novel thioether pleuromutilin derivatives as potent antibacterial agents” (J Med Chem, 2014).
≈ marks a conversion by molar mass, not a printed value.

Legend:
Assay type in all cases: functional
[1] = system: Staphylococcus epidermidis; experiment: Antibacterial activity against methicillin-sensitive Staphylococcus epidermidis after 16 hrs by agar dilution method
[2] = system: Staphylococcus epidermidis; experiment: Antibacterial activity against methicillin-resistant Staphylococcus epidermidis after 16 hrs by agar dilution method
[3] = system: Streptococcus pneumoniae; experiment: Antibacterial activity against penicillin-resistant Streptococcus pneumoniae after 16 hrs by agar dilution method
[4] = system: Staphylococcus aureus; experiment: Antibacterial activity against methicillin-sensitive Staphylococcus aureus after 16 hrs by agar dilution method
[5] = system: Staphylococcus aureus; experiment: Antibacterial activity against methicillin-resistant Staphylococcus aureus after 16 hrs by agar dilution method
[6] = system: Staphylococcus aureus; experiment: Antibacterial activity against Staphylococcus aureus […] after 16 hrs by agar dilution method

With `C=C[C@]1(C)C[C@@H](OC(=O)CSc2cc(C#N)ccn2)[C@]2(C)[C@H](C)CC[C@]3(CCC(=O)[C@H]32)[C@@H](C)[C@@H]1O` the MIC [1] was 0.063 µg/mL (≈ 0.127 µM), the MIC [2] was 0.063 µg/mL (≈ 0.127 µM) and the MIC [3] was 0.063 µg/mL (≈ 0.127 µM). The MIC [4] was 0.063 µg/mL (≈ 0.127 µM), the MIC [5] was 0.063 µg/mL (≈ 0.127 µM) and the MIC [6] was 0.125 µg/mL (≈ 0.252 µM).
`C=C[C@]1(C)C[C@@H](OC(=O)CSc2cncc(NC(=O)CN3CCCC3)c2)[C@]2(C)[C@H](C)CC[C@]3(CCC(=O)[C@H]32)[C@@H](C)[C@@H]1O` gave an MIC [1] of 0.031 µg/mL (≈ 0.0519 µM), an MIC [2] of 0.125 µg/mL (≈ 0.209 µM) and an MIC [3] of 0.031 µg/mL (≈ 0.0519 µM). For the same compound, the MIC [4] was 0.125 µg/mL (≈ 0.209 µM), the MIC [5] was 0.125 µg/mL (≈ 0.209 µM) and the MIC [6] was 0.125 µg/mL (≈ 0.209 µM).
Work on `C=C[C@]1(C)C[C@@H](OC(=O)CSc2ncccc2C#N)[C@]2(C)[C@H](C)CC[C@]3(CCC(=O)[C@H]32)[C@@H](C)[C@@H]1O` yielded an MIC [1] of 0.5 µg/mL (≈ 1.01 µM), an MIC [2] of 0.5 µg/mL (≈ 1.01 µM) and an MIC [3] of 0.5 µg/mL (≈ 1.01 µM). For the same compound, the MIC [4] was 0.5 µg/mL (≈ 1.01 µM), the MIC [5] was 0.5 µg/mL (≈ 1.01 µM) and the MIC [6] was 1 µg/mL (≈ 2.01 µM).
`C=C[C@]1(C)C[C@@H](OC(=O)CSc2ccnc(CO)c2)[C@]2(C)[C@H](C)CC[C@]3(CCC(=O)[C@H]32)[C@@H](C)[C@@H]1O` was tested, and the MIC [1] was 0.031 µg/mL (≈ 0.0618 µM), the MIC [2] was 0.031 µg/mL (≈ 0.0618 µM) and the MIC [3] was 0.063 µg/mL (≈ 0.126 µM). The MIC [4] was 0.063 µg/mL (≈ 0.126 µM), the MIC [5] was 0.031 µg/mL (≈ 0.0618 µM) and the MIC [6] was 0.063 µg/mL (≈ 0.126 µM).
Compound `C=C[C@]1(C)C[C@@H](OC(=O)CS[C@@H]2C[C@H]3CC[C@@H](C2)N3C)[C@]2(C)[C@H](C)CC[C@]3(CCC(=O)[C@H]32)[C@@H](C)[C@@H]1O` [RETAPAMULIN] has an MIC [1] of 0.063 µg/mL (≈ 0.122 µM), an MIC [2] of 0.063 µg/mL (≈ 0.122 µM) and an MIC [3] of 0.063 µg/mL (≈ 0.122 µM). For the same compound, the MIC [4] was 0.063 µg/mL (≈ 0.122 µM), the MIC [5] was 0.063 µg/mL (≈ 0.122 µM) and the MIC [6] was 0.125 µg/mL (≈ 0.241 µM).
With `C=C[C@]1(C)C[C@@H](OC(=O)CSc2ccc(N)cn2)[C@]2(C)[C@H](C)CC[C@]3(CCC(=O)[C@H]32)[C@@H](C)[C@@H]1O` the MIC [1] was 0.063 µg/mL (≈ 0.129 µM), the MIC [2] was 0.063 µg/mL (≈ 0.129 µM) and the MIC [3] was 0.063 µg/mL (≈ 0.129 µM). For the same compound, the MIC [4] was 0.063 µg/mL (≈ 0.129 µM), the MIC [5] was 0.063 µg/mL (≈ 0.129 µM) and the MIC [6] was 0.125 µg/mL (≈ 0.257 µM).
Work on `C=C[C@]1(C)C[C@@H](OC(=O)CSc2cncc(NC(=O)[C@H](C)N)c2)[C@]2(C)[C@H](C)CC[C@]3(CCC(=O)[C@H]32)[C@@H](C)[C@@H]1O` yielded an MIC [1] of 0.125 µg/mL (≈ 0.224 µM), an MIC [2] of 0.125 µg/mL (≈ 0.224 µM) and an MIC [3] of 0.125 µg/mL (≈ 0.224 µM). For the same compound, the MIC [4] was 0.125 µg/mL (≈ 0.224 µM), the MIC [5] was 0.125 µg/mL (≈ 0.224 µM) and the MIC [6] was 0.125 µg/mL (≈ 0.224 µM).
For `C=C[C@]1(C)C[C@@H](OC(=O)CSc2ccc(CO)nc2)[C@]2(C)[C@H](C)CC[C@]3(CCC(=O)[C@H]32)[C@@H](C)[C@@H]1O`, the MIC [1] was 0.25 µg/mL (≈ 0.498 µM), the MIC [2] was 0.031 µg/mL (≈ 0.0618 µM) and the MIC [3] was 0.063 µg/mL (≈ 0.126 µM). For the same compound, the MIC [4] was 0.063 µg/mL (≈ 0.126 µM), the MIC [5] was 0.031 µg/mL (≈ 0.0618 µM) and the MIC [6] was 0.5 µg/mL (≈ 0.997 µM).
With `C=C[C@]1(C)C[C@@H](OC(=O)CSc2cncc(NC(=O)CN3CCC[C@H]3CN)c2)[C@]2(C)[C@H](C)CC[C@]3(CCC(=O)[C@H]32)[C@@H](C)[C@@H]1O` the MIC [1] was 0.5 µg/mL (≈ 0.798 µM), the MIC [2] was 0.5 µg/mL (≈ 0.798 µM) and the MIC [3] was 0.063 µg/mL (≈ 0.101 µM). It also gave an MIC [4] of 0.5 µg/mL (≈ 0.798 µM), an MIC [5] of 1 µg/mL (≈ 1.6 µM) and an MIC [6] of 0.25 µg/mL (≈ 0.399 µM).
With `C=C[C@]1(C)C[C@@H](OC(=O)CSc2cncc(OC)c2)[C@]2(C)[C@H](C)CC[C@]3(CCC(=O)[C@H]32)[C@@H](C)[C@@H]1O` the MIC [1] was 2 µg/mL (≈ 3.99 µM), the MIC [2] was 0.125 µg/mL (≈ 0.249 µM) and the MIC [3] was 0.125 µg/mL (≈ 0.249 µM). The MIC [4] was 0.125 µg/mL (≈ 0.249 µM), the MIC [5] was 0.125 µg/mL (≈ 0.249 µM) and the MIC [6] was 1 µg/mL (≈ 1.99 µM).
With `C=C[C@]1(C)C[C@@H](OC(=O)CSc2cccnc2)[C@]2(C)[C@H](C)CC[C@]3(CCC(=O)[C@H]32)[C@@H](C)[C@@H]1O` the MIC [1] was 0.125 µg/mL (≈ 0.265 µM), the MIC [2] was 0.25 µg/mL (≈ 0.53 µM) and the MIC [3] was 0.125 µg/mL (≈ 0.265 µM). It also gave an MIC [4] of 0.125 µg/mL (≈ 0.265 µM), an MIC [5] of 0.125 µg/mL (≈ 0.265 µM) and an MIC [6] of 0.25 µg/mL (≈ 0.53 µM).
In the case of `C=C[C@]1(C)C[C@@H](OC(=O)CSc2nccs2)[C@]2(C)[C@H](C)CC[C@]3(CCC(=O)[C@H]32)[C@@H](C)[C@@H]1O`, the MIC [1] is reported as 0.25 µg/mL (≈ 0.523 µM), the MIC [2] is reported as 0.25 µg/mL (≈ 0.523 µM) and the MIC [3] is reported as 0.5 µg/mL (≈ 1.05 µM). For the same compound, the MIC [4] was 0.5 µg/mL (≈ 1.05 µM), the MIC [5] was 0.5 µg/mL (≈ 1.05 µM) and the MIC [6] was 0.5 µg/mL (≈ 1.05 µM).
For `C=C[C@]1(C)C[C@@H](OC(=O)CSc2cncc(C(=O)OC)c2)[C@]2(C)[C@H](C)CC[C@]3(CCC(=O)[C@H]32)[C@@H](C)[C@@H]1O`, the MIC [1] was 1 µg/mL (≈ 1.89 µM), the MIC [2] was 0.25 µg/mL (≈ 0.472 µM) and the MIC [3] was 0.25 µg/mL (≈ 0.472 µM). The MIC [4] was 1 µg/mL (≈ 1.89 µM), the MIC [5] was 0.125 µg/mL (≈ 0.236 µM) and the MIC [6] was 1 µg/mL (≈ 1.89 µM).
